# Measured values from paper PMC6882468 (Journal of Enzyme Inhibition and Medicinal Chemistry, 2019).
# What was measured:
# [1] = test system: COX-2 expression in RAW264.7 cells; experiment: Western blot of LPS-induced COX-2 expression; type: cell-based, Murine; details: RAW264.7, LPS 200 ng/mL 24 h
# Method: (§1) The cell in 96-well plates were treated as described above and then stimulated with LPS (200 ng/mL) for 24 h. The cells were harvested and lysed in an extraction lysis buffer (Beyotime Biotechnology, Shanghai, China) containing protease inhibitors. The protein concentration was determined using a BCA protein assay kit (Thermo Scientific, 23227). The whole cell lysates were separated by 10% sodium dodecyl sulphate-polyacrylamide gel electrophoresis and transferred to a nitrocellulose membrane. Each membrane was incubated with Tris-buffered saline (pH 7.6, containing 0.05% Tween-20 and 5% non-fat milk). The nitrocellulose membrane was incubated with the primary antibody against p-JNK1/2, JNK1/2, p-p38, p38, p-ERK1/2, ERK1/2, IκBa, NF-κB p65, COX-2, iNOS or β-Actin (Abcam, Cambridge, UK). Immunoreactive bands were detected by incubating with horseradish peroxidase-conjugated secondary antibodies, and visualised using enhanced chemiluminescence reagents (Bio-Rad, Hercules, CA).
# (§2) Figure 6. […] Cell viability was evaluated using the MTT assay. NO production was measured using nitrite and nitrate assay. iNOS and COX-2 expression were detected by Western blot. (A) Cell viability assay; (B) Quantitative analysis of NO productions; (C) Quantitative analysis of iNOS expressions, (D) Quantitative analysis of COX-2 expressions. β-actin was used as loading control.
# [2] = test system: NF-κB activation in RAW264.7 cells; experiment: Western blot of LPS-induced NF-κB activation; type: cell-based, Murine; details: RAW264.7, 2-h pre-treatment before LPS stimulation
# Method: as §1
# Figure 5. Compound 6n inhibited LPS-induced NF-κB activation in RAW264.7 cells. […] The levels of NF-κB p65, IκB, and their phosphorylated forms were analysed using western blot.
# [3] = biological target: T1, COX-1 (Ovis aries, UniProt P05979); experiment: COX-1 inhibition assay in vitro (COX Inhibitor Screening Kit, fluorometric); type: biochemical
# T1 construct: purchased BioVision, Inc
# T1 sequence (P05979 25-600): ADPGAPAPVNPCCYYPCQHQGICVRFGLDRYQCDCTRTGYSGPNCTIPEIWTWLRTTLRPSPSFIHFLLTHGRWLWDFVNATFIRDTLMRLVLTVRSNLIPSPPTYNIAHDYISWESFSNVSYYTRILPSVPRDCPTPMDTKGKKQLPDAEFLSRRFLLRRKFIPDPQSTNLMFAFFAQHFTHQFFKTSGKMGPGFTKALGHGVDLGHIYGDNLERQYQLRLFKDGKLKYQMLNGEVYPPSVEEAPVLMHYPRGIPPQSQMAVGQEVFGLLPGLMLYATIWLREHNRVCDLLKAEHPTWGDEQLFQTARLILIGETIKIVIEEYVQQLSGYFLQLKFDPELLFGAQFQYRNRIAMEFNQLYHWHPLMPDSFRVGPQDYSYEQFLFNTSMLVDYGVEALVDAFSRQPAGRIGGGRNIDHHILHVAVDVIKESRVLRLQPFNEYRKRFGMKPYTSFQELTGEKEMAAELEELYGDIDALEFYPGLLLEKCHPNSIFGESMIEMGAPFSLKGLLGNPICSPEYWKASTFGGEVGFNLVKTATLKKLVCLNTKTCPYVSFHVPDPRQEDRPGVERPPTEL
# Method: Simply, different concentrations of the test compound solution were added to the mixed solution containing COX-1/COX-2 enzyme (10 µL) and Assay Buffer (960 µL, 0.1 M Tris-HCl pH 8.0 containing 5 µM EDTA and 2 µM phenol). […] The IC50 values were calculated as described above.
# [4] = biological target: p38α MAPK (Homo sapiens, UniProt Q16539); experiment: p38α MAPK inhibition assay in vitro; type: biochemical; details: triplicate, read-out: IC50 p38p
# Sequence of p38α MAPK (Q16539 whole entry): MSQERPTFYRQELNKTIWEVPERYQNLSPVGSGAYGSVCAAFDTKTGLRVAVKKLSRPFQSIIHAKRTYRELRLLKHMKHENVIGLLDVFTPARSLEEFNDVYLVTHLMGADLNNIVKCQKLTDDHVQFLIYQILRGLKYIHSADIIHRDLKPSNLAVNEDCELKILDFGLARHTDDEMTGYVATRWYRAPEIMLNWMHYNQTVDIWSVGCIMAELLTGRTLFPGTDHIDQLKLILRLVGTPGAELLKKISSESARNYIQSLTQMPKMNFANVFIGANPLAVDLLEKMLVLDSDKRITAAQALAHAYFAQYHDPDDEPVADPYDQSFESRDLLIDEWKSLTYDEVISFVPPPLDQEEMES
# Method: In brief, after mixing the enzyme reagent with the sample, a reaction mixture containing 200 µM biotin-peptide substrate and 600 µM ATP (+100 µCi/mL γ-^32 P-ATP) was added to initiate the reaction. […] Part of the reaction solution was transferred to the well of a streptavidin-coated flash plate, washed in PBS containing 0.01% Tween and sealed. The average value of counts per minute for each group and the IC50 value was calculated.
# The average fluorescence values of each well were calculated and recorded as RFU (Relative Fluorescence Unit) blank control (RFU blank), RFU 100% enzyme activity control (RFU enzyme), RFU positive drug control (RFU drug) and RFU test compound (RFU compound). The inhibition rate is calculated according to the following formula. Inhibition rate (%)= (RFU (enzyme) – RFU (compound/drug) […]) /(RFU (enzyme) – RFU (blank)) * 100%
# The IC50 value of the test compound was calculated by the concentration-inhibition reaction curve and the assays were performed in triplicate.
# [5] = test system: JNK phosphorylation in RAW264.7 cells; experiment: Western blot of LPS-induced JNK phosphorylation; type: cell-based, Murine; details: RAW264.7, 5, 10, 20 μM, LPS 200 ng/mL
# Method: as §1
# Figure 7. Compound 6n inhibited LPS-induced MAPK-signalling activation in RAW264.7 cells. RAW264.7 cells were co-incubated with 6n (5, 10, 20 μM) and LPS (200 ng/mL) for 30 min. The levels of p38, JNK, ERK1/2 and their phosphorylated forms were analysed using western blot.
# [6] = test system: iNOS expression in RAW264.7 cells; experiment: Western blot of LPS-induced iNOS expression; type: cell-based, Murine; details: RAW264.7, LPS 200 ng/mL 24 h
# Method: as §1, §2
smiles,measurement,setting,value
"COc1ccccc1CN1CCN(C(=O)c2ccccc2C(C)=O)CC1 [Compound 6n, 1–(2-(4–(2-Methoxybenzyl)piperazine-1-carbonyl)phenyl)ethan-1-one]",LPS-induced expression of COX-2,[1],dose-dependent decrease
same,LPS-induced IκB phosphorylation,[2],markedly decreased
same,accumulation of NF-κB p65 subunit in the nucleus,[2],lowered
same,cytosolic IκB,[2],increased
same,IC50,[3],12.6 ± 0.79 µM
same,IC50,[4],1.95 ± 0.13 µM
same,phosphorylation of JNK,[5],no obvious effect
same,LPS-induced expression of iNOS,[6],dose-dependent decrease
